Results published in patent US20220194939A1, “Novel compounds and methods of use treating fructose-related disorders or diseases” (Colorado Research Partners, LLC, priority 2019, published 2022).
Counter-ions that a name gives are not always drawn.

Biological target: T1, KHK (Homo sapiens, UniProt P50053)
T1 construct: (His)6 tag (N); thrombin cleavage site (N); made in house; host or cells: E. coli BL-21 (DE3)
T1 sequence (P50053 1-298): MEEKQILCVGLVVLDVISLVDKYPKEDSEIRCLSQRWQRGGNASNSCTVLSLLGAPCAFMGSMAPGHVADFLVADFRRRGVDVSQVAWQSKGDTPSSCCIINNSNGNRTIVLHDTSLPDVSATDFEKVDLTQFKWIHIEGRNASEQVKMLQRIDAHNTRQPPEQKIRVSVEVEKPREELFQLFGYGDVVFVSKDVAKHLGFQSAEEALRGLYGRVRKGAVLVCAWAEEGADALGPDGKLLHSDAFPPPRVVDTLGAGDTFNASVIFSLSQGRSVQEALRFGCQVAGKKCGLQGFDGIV
Test: coupled enzyme assay for KHK activity
Format: biochemical
Details: purified human recombinant KHK, PK/LDH coupled assay, A340 at 25° C., 0.1 mM ATP, 0.2 mM fructose; isoform (KHK-C or KHK-A) not given
Excerpt: Specific coupled enzyme screening assays were developed for KHK-C and KHK-A using recombinant proteins. Purified human recombinant KHK-C and KHK-A were produced using by expression in E. coli BL-21 (DE3) using IPTG induction as a His-tagged fusion proteins and purified using Ni-NTA chromatography on His-Trap FF columns. For KHK-C, the coding region from NCBI refseq number NM_006488 was inserted at the Nde I site of pET28a(+) vector, which puts it downstream from an amino-terminal (His)6 tag and a thrombin cleavage site. The same was done for KHK-A using the coding regions from NCBI refseq number NM_000221.2. The protein was expressed in BL-21 (DE3) using IPTG induction and purified using Ni-NTA (GE His Trap FF) column. The protein was washed with 100 column volumes, eluted with 3 column volumes, and dialyzed with HEPES, pH 7.4 buffers containing 20, 500, and 0 mM imidazole, respectively. The dialysate was concentrated by ultrafiltration (10kD MWCO) to >15 mg/mL protein. The protein prep was >95% pure on SDS-PAGE and the molecular weight was confirmed by relative mobility to be 33,730 Da (34,826 expected).
The assay uses the product of the KHK reaction, ADP, to drive a signal measured in real time for measuring the reaction rate. This consists of a 3-step, coupled-enzyme process by which pyruvate kinase (PK), which converts the ADP from the KHK reaction along with phosphoenolpyruvate (PEP) to ATP and pyruvate, respectively. The pyruvate is converted along with NADH to lactate and NAD+ by lactate dehydrogenase (LDH). The disappearance of NADH is measured kinetically by monitoring A340 at 25° C. for 15 minutes. The enzymatic assay was carried out in a total reaction volume of 200 μL containing 33 mM triethanolamine-HCl, pH 7.4, 6 mM MgCl2, 100 mM KCl, 0.1 mM ATP, 1.33 mM PEP, 0.3 mM NADH, 0.2-1.0 U of PK, 0.2-1.0 U of LDH, and 150-240 nM KHK-C or KHK-A (0.01-0.02 U). Fructose was added to initiate the reactions to 0.2 mM, except for the no fructose controls which utilized water. This high-throughput assay was used to identify inhibitors that have an IC50 value<1 μM for KHK-C and to confirm that those values for KHK-A were not more than 2-fold lower.

Row | IC50 | Compound
1 | 200 µM | CCCCCCCC(=O)OC[C@H](NC(=O)OC(C)C)C(=O)Nc1ccc2cnn(-c3cccc(C)c3)c2c1 [Compound 35, (S)-2-((isoproxycarbonyl)amino)-3-oxo-3-((1-(m-tolyl)-1H-indazol-6-yl)amino)propyl octanoate]
2 | > 1000 µM | Cc1cccc(-n2ncc3ccc(NC(=O)[C@@H](N)COC(=O)c4cccnc4)cc32)c1 [Compound 25, (S)-2-amino-3-oxo-3-((1-(m-tolyl)-1H-indazol-6-yl)amino)propyl nicotinate hydrochloride]
3 | 0.27 µM | Cc1cccc(-n2ncc3ccc(NC(=O)[C@@H](C)N)cc32)c1 [Compound 7, (R)-2-amino-N-(1-(m-tolyl)-1H-indazol-6-yl)propanamide hydrochloride]
4 | 1.86 µM | CCc1nn(-c2cccc(C)c2)c2cc(NC(=O)[C@@H](N)CO)ccc12 [Compound 43, (S)-2-amino-N-(3-ethyl-1-(m-tolyl)-1H-indazol-6-yl)-3-hydroxypropanamide hydrochloride]
5 | 0.52 µM | Cc1cccc(-n2ncc3c(F)cc(NC(=O)[C@H]4NCC[C@@H]4O)cc32)c1 [Compound 19, (2S,3S)-N-(4-fluoro-1-(m-tolyl)-1H-indazol-6-yl)-3-hydroxypyrrolidine-2-carboxamide hydrochloride]
6 | 8 µM | CCCCCCCC(=O)OC[C@H](N)C(=O)Nc1cc(F)c2cnn(-c3cccc(C)c3)c2c1 [Compound 26, (S)-2-amino-3-((4-fluoro-1-(m-tolyl)-1H-indazol-6-yl)amino)-3-oxopropyl octanoate hydrochloride]
7 | 1.4 µM | Cc1cccc(-n2ncc3ccc(NC(=O)C(N)C(N)=O)cc32)c1 (centres unmarked) [Compound 38, 2-amino-N1-(1-(m-tolyl)-1H-indazol-6-yl)malonamide hydrochloride]
8 | 15 µM | Cc1cccc(-n2ncc3cnc(NC(=O)[C@@H](N)CO)cc32)c1 [Compound 44, (S)-2-amino-3-hydroxy-N-(1-(m-tolyl)-1H-pyrazolo[4,3-c]pyridin-6-yl)propanamide hydrochloride]
9 | 4 µM | Cc1cccc(-n2ncc3ccc(NC(=O)[C@H](CO)NC(=O)OC(C)C)cc32)c1 [Compound 37, (S)-isopropyl (3-hydroxy-1-oxo-1-((1-(m-tolyl)-1H-indazol-6-yl)amino)propan-2-yl)carbamate]
10 | 1.1 µM | Cc1cccc(-n2ncc3ccc(NC(=O)[C@H](N)CN)cc32)c1 [Compound 14, (R)-2,3-diamino-N-(1-(m-tolyl)-1H-indazol-6-yl)propanamide dihydrochloride]
11 | 0.25 µM | Cc1cccc(-n2ncc3ncc(NC(=O)[C@@H](N)CO)cc32)c1 [Compound 45, (S)-2-amino-3-hydroxy-N-(1-(m-tolyl)-1H-pyrazolo[4,3-b]pyridin-6-yl)propanamide hydrochloride]
